Here are results for four compounds from ChEMBL document CHEMBL1151494, “Synthesis of new building blocks for peptide nucleic acids containing monomers with variations in the backbone” (Bioorg Med Chem Lett, 1997).

Test [1] is described as follows: The stability against nucleases; Active.
Test [2] deals with Proteinase K (Tritirachium album). Briefly: The stability against proteinase K; Active.

Active and inactive are the calls of the source. The rule behind the calls is not given here.

`Cc1cn(CC(=O)N2C[C@@H](N)C[C@H]2C(=O)NC2C[C@@H](C(=O)N[C@H]3C[C@@H](C(=O)NC4C[C@@H](C(=O)N[C@H]5C[C@@H](C(=O)NC6C[C@@H](C(=O)N[C@H]7C[C@@H](C(=O)NC8C[C@@H](C(=O)N[C@@H](C)C(=O)O)N(C(=O)Cn9cc(C)c(=O)[nH]c9=O)C8)N(C(=O)Cn8cc(C)c(=O)[nH]c8=O)C7)N(C(=O)Cn7cc(C)c(=O)[nH]c7=O)C6)N(C(=O)Cn6cc(C)c(=O)[nH]c6=O)C5)N(C(=O)Cn5cc(C)c(=O)[nH]c5=O)C4)N(C(=O)Cn4cc(C)c(=O)[nH]c4=O)C3)N(C(=O)Cn3cc(C)c(=O)[nH]c3=O)C2)c(=O)[nH]c1=O` (stereo partly drawn): the Stability entry in test [1] and in test [2] was “Active” throughout.

In the case of `Cc1cn([C@H]2C[C@@H](C(=O)NCC(=O)O)N(C(=O)CNC(=O)[C@@H]3C[C@H](n4cc(C)c(=O)[nH]c4=O)CN3C(=O)CNC(=O)[C@@H]3C[C@H](n4cc(C)c(=O)[nH]c4=O)CN3C(=O)CNC(=O)[C@@H]3C[C@H](n4cc(C)c(=O)[nH]c4=O)CN3C(=O)CNC(=O)[C@@H]3C[C@H](n4cc(C)c(=O)[nH]c4=O)CN3C(=O)CNC(=O)[C@@H]3C[C@H](n4cc(C)c(=O)[nH]c4=O)CN3C(=O)CNC(=O)[C@@H]3C[C@H](n4cc(C)c(=O)[nH]c4=O)CN3C(=O)CNC(=O)[C@@H]3C[C@H](n4cc(C)c(=O)[nH]c4=O)CN3C(=O)[C@@H](N)CCCCN)C2)c(=O)[nH]c1=O`, the Stability result in test [1] and in test [2] was “Active” in each case.

For the compound `Cc1cn([C@@H]2C[C@@H](C(=O)NCC(=O)O)N(C(=O)CNC(=O)[C@@H]3C[C@@H](n4cc(C)c(=O)[nH]c4=O)CN3C(=O)CNC(=O)[C@@H]3C[C@@H](n4cc(C)c(=O)[nH]c4=O)CN3C(=O)CNC(=O)[C@@H]3C[C@@H](n4cc(C)c(=O)[nH]c4=O)CN3C(=O)CNC(=O)[C@@H]3C[C@@H](n4cc(C)c(=O)[nH]c4=O)CN3C(=O)CNC(=O)[C@@H]3C[C@@H](n4cc(C)c(=O)[nH]c4=O)CN3C(=O)CNC(=O)[C@@H]3C[C@@H](n4cc(C)c(=O)[nH]c4=O)CN3C(=O)CNC(=O)[C@@H]3C[C@@H](n4cc(C)c(=O)[nH]c4=O)CN3C(=O)[C@@H](N)CCCCN)C2)c(=O)[nH]c1=O`, the Stability entry in test [1] and in test [2] was “Active” throughout.

Take `Cc1cn(CC(=O)N2C[C@H](N)C[C@H]2C(=O)NC2C[C@@H](C(=O)N[C@@H]3C[C@@H](C(=O)NC4C[C@@H](C(=O)N[C@@H]5C[C@@H](C(=O)NC6C[C@@H](C(=O)N[C@@H]7C[C@@H](C(=O)NC8C[C@@H](C(=O)N[C@@H](C)C(=O)O)N(C(=O)Cn9cc(C)c(=O)[nH]c9=O)C8)N(C(=O)Cn8cc(C)c(=O)[nH]c8=O)C7)N(C(=O)Cn7cc(C)c(=O)[nH]c7=O)C6)N(C(=O)Cn6cc(C)c(=O)[nH]c6=O)C5)N(C(=O)Cn5cc(C)c(=O)[nH]c5=O)C4)N(C(=O)Cn4cc(C)c(=O)[nH]c4=O)C3)N(C(=O)Cn3cc(C)c(=O)[nH]c3=O)C2)c(=O)[nH]c1=O` (stereo partly drawn): the Stability entry in test [1] and in test [2] was “Active” in each case.
